PMC4556614 (PLoS ONE, 2015)

Legend:
OCT2 [1] = molecular target: T1, OCT2 (Homo sapiens, UniProt O15244); experiment: in vitro; conditions: for inhibition at 3 min, 20 µM / inhibition at 3 min, 200 µM: pH 7.3, probe [14C]metformin, 1000 µM; for inhibition at 3 min, 20 µM: % Inhibition of OCT2-dependent MF uptake at 20 µM (mean ± SEM); for inhibition at 3 min, 200 µM: % Inhibition of OCT2-dependent MF uptake at 200 µM (mean ± SEM), test drug 200 µM
Procedure: (§1) For the transport assays HEK cell lines stably transfected with human OCT2 (HEK-OCT2) or the vector only (HEK-VC) were used. The HEK-OCT2 cell line was established and characterized previously. HEK-OCT2 and HEK-VC cells were seeded in poly-D-lysine (Sigma Aldrich, Taufkirchen, Germany) coated 48-well-plates at a density of 1.2 x 10^5 cells/well. […] Uptake was stopped by washing the cells three times with ice-cold uptake buffer. Afterwards, cells were lysed with 5 mM Tris buffer (pH 7.3) containing 0.1% Triton X-100. The intracellular accumulation of radioactivity was determined by liquid scintillation counting (PerkinElmer, Rodgau-Jügesheim, Germany) and protein concentration of each lysate was measured with bicinchonic acid assay (BCA Protein Assay Kit, Thermo Fisher Scientific, Waltham, MA, USA). We performed two to eight experiments each on at least two separate days, i.e., n = 4–16.
Experimental half-maximal inhibitory concentrations (IC50 values) were measured as the substrate uptake in the presence of increasing concentrations of test drugs. These experiments were performed as described above (three experiments each on two separate days, i.e., n = 6). IC50 values were calculated with GraphPad Prism 5.0 (GraphPad Software, San Diego, CA, USA). IC50 was estimated by a sigmoidal inhibition model and was fit to the equation V = V 0 / (1 + (I / IC50 ) ^n ) by nonlinear regression. V is the net uptake in the presence of the inhibitor, V 0 is the net uptake in the absence of the inhibitor, I is the concentration of the inhibitor and n is the slope.

OCT2 [2] = molecular target: T1, OCT2; experiment: Inhibition of OCT2-mediated [3H]MPP+ uptake in HEK-OCT2 cells; conditions: for inhibition at 3 min, 20 µM / inhibition at 3 min, 200 µM: pH 7.3, probe [3H]MPP+, 50 µM
Procedure: as §1

[3] = test drug 20 µM, MPP+ 50 μM, 3 min, net uptake HEK-OCT2 minus HEK-VC
[4] = test drug 200 µM, MPP+ 50 μM, 3 min, net uptake HEK-OCT2 minus HEK-VC
[5] = human, test drug 20 µM, metformin 1000 μM, 3 min, net uptake HEK-OCT2 minus HEK-VC
[6] = human, metformin 1000 μM, 3 min, net uptake HEK-OCT2 minus HEK-VC

T1 sequence (O15244 whole entry): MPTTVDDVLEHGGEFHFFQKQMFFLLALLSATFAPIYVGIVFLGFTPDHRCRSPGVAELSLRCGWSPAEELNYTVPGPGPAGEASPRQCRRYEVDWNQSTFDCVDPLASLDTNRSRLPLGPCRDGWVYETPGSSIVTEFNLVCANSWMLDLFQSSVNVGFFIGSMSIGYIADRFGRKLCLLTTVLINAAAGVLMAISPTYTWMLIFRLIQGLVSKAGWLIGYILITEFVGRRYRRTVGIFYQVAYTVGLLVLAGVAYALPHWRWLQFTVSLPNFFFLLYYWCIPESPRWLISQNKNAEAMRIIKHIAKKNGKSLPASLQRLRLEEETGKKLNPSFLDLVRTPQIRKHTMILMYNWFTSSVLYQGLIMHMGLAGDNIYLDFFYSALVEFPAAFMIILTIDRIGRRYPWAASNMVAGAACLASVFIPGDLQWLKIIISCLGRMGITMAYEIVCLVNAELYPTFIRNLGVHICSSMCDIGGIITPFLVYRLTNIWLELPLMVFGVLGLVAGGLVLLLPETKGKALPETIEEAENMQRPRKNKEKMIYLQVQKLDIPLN

SMILES	% Inhibition of OCT2-dependent MF uptake at 20 µM (mean ± SEM) (OCT2 [1]; human, pH 7.3)	% Inhibition of OCT2-dependent MF uptake at 200 µM (mean ± SEM) (OCT2 [1]; human, pH 7.3)	% Inhibition of OCT2-dependent MPP+ uptake at 20 µM (mean ± SEM) (OCT2 [2]; [3]) [%]	% Inhibition of OCT2-dependent MPP+ uptake at 200 µM (mean ± SEM) (OCT2 [2]; [4]) [%]	% Inhibition of OCT2-dependent MPP+ uptake at 20 µM (mean ± SEM) (OCT2 [2]; human, pH 7.3)	% Inhibition of OCT2-dependent MPP+ uptake at 200 µM (mean ± SEM) (OCT2 [2]; human, pH 7.3)	inhibition at 3 min, 20 µM (OCT2 [1]; [5]) [%]	inhibition at 3 min, 200 µM (OCT2 [1]; [6]) [%]	inhibition at 3 min, 20 µM (OCT2 [2]; human) [%]	inhibition at 3 min, 200 µM (OCT2 [2]; human) [%]	% Inhibition of OCT2-dependent MF uptake at 20 µM (mean ± SEM) (OCT2 [1]; test drug 20 µM, metformin 1000 μM, 3 min, net uptake HEK-OCT2 minus HEK-VC) [%]
CC(C)NCC(O)COc1ccc(COCCOC(C)C)cc1 (centres unmarked) [Bisoprolol]	57.2 ± 4.0%	75.8 ± 4.5%	-16.1 ± 2.2	11.8 ± 5.5							
O=C1CN=C(c2ccccn2)c2cc(Br)ccc2N1 [Bromazepam]	27.6 ± 2.6%	77.9 ± 1.4%			-16.3 ± 9.0%	14.7 ± 8.3%					
CCOc1nc2cccc(C(=O)O)c2n1Cc1ccc(-c2ccccc2-c2nnn[nH]2)cc1 [Candesartan]							48 ± 3.7	69.7 ± 2.7	0.9 ± 0.1	-2.4 ± 4	
C[C@H](CS)C(=O)N1CCC[C@H]1C(=O)O [Captopril]	-21.6 ± 19.5%	-59.0 ± 0.9%	3.8 ± 5.7	10.2 ± 6.8							
NC(=O)N1c2ccccc2C=Cc2ccccc21 [Carbamazepine]	0.2 ± 3.8%	83.8 ± 1.2%	-51.4 ± 9.2	-2.1 ± 4.4							
COc1ccccc1OCCNCC(O)COc1cccc2[nH]c3ccccc3c12 (centres unmarked) [Carvedilol]	84.3 ± 5.2%	98.6 ± 0.5%	32.2 ± 3.7	88.5 ± 1.5							
CO/N=C(\C(=O)N[C@@H]1C(=O)N2C(C(=O)O)=C(COC(N)=O)CS[C@H]12)c1ccco1 [Cefuroxime]	29.9 ± 9.7%	50.3 ± 11.6%	-10.5 ± 7.0	-30.8 ± 12.9							
CN(C)CC/C=C1/c2ccccc2Sc2ccc(Cl)cc21 [Chlorprothixene]	66.8 ± 7.9%	98.4 ± 0.9%	29.9 ± 7.5	91.7 ± 2.2							
C=C1CC[C@H](O)C/C1=C/C=C1\CCC[C@]2(C)[C@@H]([C@H](C)CCCC(C)C)CC[C@@H]12 [Cholecalciferol]	2.8 ± 15.7	17.1 ± 5.0	6.8 ± 5.1	10.4 ± 6.1							
CN(C)CCCC1(c2ccc(F)cc2)OCc2cc(C#N)ccc21 (centres unmarked) [Citalopram]	66.6 ± 7.9	78.9 ± 8.4	40.0 ± 9.9	75.2 ± 9.7							
Cc1ncsc1CCCl [Clomethiazole]	-9.2 ± 6.8	28.7 ± 3.9	-6.7 ± 9.2	-147.3 ± 23.7							
COC(=O)[C@H](c1ccccc1Cl)N1CCc2sccc2C1 [Clopidogrel]	70.0 ± 2.0	92.8 ± 5.4			12.5 ± 0.8	41.5 ± 4.0					
CN1CCN(C2=Nc3cc(Cl)ccc3Nc3ccccc32)CC1 [Clozapine]	71.4 ± 1.6	98.7 ± 0.7	43.4 ± 4.7	84.1 ± 2.5							
O=C(O)Cc1ccccc1Nc1c(Cl)cccc1Cl [Diclofenac]	14.3 ± 8.8	59.1 ± 6.5	8.8 ± 8.9	24.0 ± 4.0							
C[C@H]1O[C@@H](O[C@H]2[C@@H](O)C[C@H](O[C@H]3[C@@H](O)C[C@H](O[C@H]4CC[C@@]5(C)[C@H](CC[C@@H]6[C@@H]5CC[C@]5(C)[C@@H](C7=CC(=O)OC7)CC[C@]65O)C4)O[C@@H]3C)O[C@@H]2C)C[C@H](O)[C@@H]1O [Digitoxin]	28.7 ± 7.9	32.8 ± 2.9	-32.6 ± 3.8	-32.4 ± 8.5							
COc1cc2nc(N3CCN(C(=O)C4COc5ccccc5O4)CC3)nc(N)c2cc1OC (centres unmarked) [Doxazosin]	48.0 ± 5.5	92.1 ± 1.0	26.7 ± 10.3	45.8 ± 14.0							
C[C@H]1c2cccc(O)c2C(=O)C2=C(O)[C@]3(O)C(=O)C(C(N)=O)=C(O)[C@@H](N(C)C)[C@@H]3[C@@H](O)[C@@H]21 [Doxycycline]	-21.8 ± 1.9	1.9 ± 9.1	-12.9 ± 13.1	-16.6 ± 11.7							
C[C@]12CCC(=O)C=C1[C@@H]1C[C@@H]1[C@H]1[C@@H]3[C@@H]4C[C@@H]4[C@@]4(CCC(=O)O4)[C@@]3(C)CC[C@@H]12 [Drospirenone]							> 85	99.1 ± 0.7	0	42.6 ± 1.4	88.0 ± 7.3
CNCC[C@H](Oc1cccc2ccccc12)c1cccs1 [Duloxetine]	76.5 ± 0.9	98.3 ± 0.2			23.3 ± 6.0	86.4 ± 5.1					
CCOC(=O)[C@H](CCc1ccccc1)N[C@@H](C)C(=O)N1CCC[C@H]1C(=O)O [Enalapril]	7.5 ± 2.3	34.2 ± 4.5	7.1 ± 7.4	20.2 ± 5.6							
CN(C)CCC[C@@]1(c2ccc(F)cc2)OCc2cc(C#N)ccc21 [Escitalopram]	62.6 ± 9.2	93.8 ± 3.6	-26.3 ± 7.9	26.0 ± 10.1							
C[C@]12CC[C@@H]3c4ccc(O)cc4CC[C@H]3[C@@H]1CC[C@@H]2O [Estradiol]	57.9 ± 5.4	66.6 ± 2.1	10.6 ± 4.2	19.0 ± 6.5							
